Experimental data published in patent US20150231109A1, “COMBINATIONS (CATECHINS AND METHOTREXATE) FOR USE IN THE TREATMENT OF MELANOMAS” (UNIVERSIDAD DE MURCIA, priority 2012, published 2015).

Key:
[1] = test system: low passage patient-derived melanoma cells bearing MEK and BRAF mutations; test: MTT assay on low passage patient-derived melanoma cell lines with BRAF and MEK1 or MEK2 mutations; format: cell-based, human; conditions: BRAF-inhibitor and MEK-inhibitor resistant lines; MTX/TMECG 1 μM/10 μM, PLX-4720 1 μM
Protocol: G, MTT assay indicating effects of MTX/TMECG (1 μM/10 μM) and PLX-4720 (1 μM) treatment on low passage patient-derived melanoma cells bearing indicated MEK and BRAF mutations. Cells were treated with vehicle only (•), PLX-4720 ( ), or with a combination of MTX+TMECG (Δ). Note the number of cells at the start of the experiment was at the limit of detection. […] Error bars show mean±SD.
MTX/TMECG was tested against two low passage melanoma cell lines (fewer than 10 passages) derived from patients with activating BRAF mutations that are resistant to both BRAF-inhibitor and MEK-inhibitor therapy, owing to the presence of activating mutations in MEK1 or MEK2 (Nikolaev et al., 2011). In the MTT assays (FIGS. 2G and 5A) a low starting number of cells (2×10^3) was used, so that any proliferation could be readily visualized.
Cell viability was evaluated using the 3-(4,5-dimethylthiazol-2-yl)-2,5-diphenyltetrazolium bromide (MTT) cell proliferation assay.

[2] = Toxicology in non-tumor inoculated C57BL/6 mice; format: in vivo, mouse
Protocol: FIGS. 4A-N. MTX and TMECG combination therapy is effective in vivo. A, A375 melanoma cells were included in a human reconstructed skin model and were treated with MTX (1 μM) and/or TMECG (10 μM) for 14 days. B, B16/F10 melanoma cells were injected subcutaneously into C57/B16 mice. Images show tumor size 17 days post-injection in control and treated mice. […] C, Luciferase imaging of control and MTX/TMECG-treated mice 12 days post-tumor cell injection. Beetle luciferin (120 mg/kg of mouse) was injected intraperitoneally. The values (means±s.d.) are representative of three independent experiments. *P=0.007; **P=0.002. D, Bioluminescent imaging of livers at 14 days post-intrasplenic injection of B16-F10-luc-G5 cells from untreated and MTX/TMECG-treated mice are shown. E, Quantification of macrometastases (0-10, 10-25 or >25) after treatment with vehicle (control), MTX (1 mg/kg/day), and/or TMECG (50 mg/kg/day). F, Photomicrograph of H&E-stained, 4 μm formalin-fixed, paraffin-embedded liver sections from control (DMSO) and MTX/TMECG-treated mice (1 and 50 mg/kg/day, respectively) (5× magnification). G, MTX activation of MITF and tyrosinase activates the melanoma-specific antifolate activity of TMECG, leading to depletion of cellular dTTP and apoptosis. H, Sections stained with hematoxylin and eosin show the effect of MTX/TMECG on B16/F10 primary splenic tumors. Xenograft tumors treated with DMSO (vehicle) or MTX/TMECG (1 mg/kg/day and 50 mg/kg/day, respectively) over 14-days. […] Representative images taken from two independent experiments (n=5 for each experiment). Scale bar=200 μm and is applicable to both panels. I, B16/F10 melanoma cells, expressing a luciferase reporter, were injected subcutaneously to mice. Mice were divided in two groups (n=7) and treated with vehicle (DMSO) or MTX/TMECG (1 mg/kg/day and 10 mg/kg/day, respectively) over 21-days. Then, tumors were pooled and dissociated. B16/F10 cells extracted from tumors were examined for their sensitivity to the MTX/TMECG combination (1 μM and 10 μM, respectively) using quantification of the luminescence signal (left panel). J, The histogram represents the number of B16/F10-luc2 cells remaining after 3 days of MTX/TMECG treatment with respect to vehicle treated controls (100%). […] K, The morphology of tumor dissociated B16/F10-luc2 cells before and after of MTX/TMECG treatment. Scale bar refers to all panels. L, Histograms represent the number of copies of TYR mRNA for every 1×10^3 copies of β-actin±SD of three independent experiments. […]
To explore the toxicity of TMECG and MTX, these agents (at indicated concentrations) were administrated intradermally to the back of non-tumor inoculated female C57BL/6 mice (n=10), and body weight monitored every other day. […]

[3] = Pharmacokinetic studies in mice plasma; format: in vivo; conditions: mouse, ip, male C57BL/6 mice, intra-peritoneal TMECG 50 mg/kg alone or with MTX 50 mg/kg
Protocol: Pharmacokinetic studies were performed in male C57BL/6 mice after intra-peritoneal injection of MTX (50 mg/kg) and/or TMECG (50 mg/kg). Animals were anesthetized with CO2, and whole blood samples (˜0.5 mL) were collected via cardiac puncture. Samples for drug quantification were collected from different animals (in triplicate) at 5, 15, and 30 min and at 1, 2, 4, and 6 hr post-dose. Whole blood samples were transferred to lithium heparin blood collection tubes, and then centrifuged at 10,000 rpm for 10 min at 4° C. After plasma deproteinization with 5% trichloroacetic acid (TCA), MTX and TMECG plasma concentrations were calculated by HPLC. Pharmacokinetic parameters were estimated using the WinNonlin software package (WinNonlin Professional version 5.1., Pharsight Corporation, CA). WinNonlin model 200 was used for the non-compartmental analysis of the concentration-time data. The area under the plasma concentration-time curve (AUClast) from time 0 to the last point (tlast) with measurable concentration (Clast) was estimated using a linear trapezoidal approximation (AUClast). The elimination half-life (t1/2) was calculated as ln2/kel, where kel (elimination rate constant) was estimated using least squares regression analysis of the concentration-time data obtained during the terminal log-linear elimination phase. The maximum plasma concentrations (Cmax) were estimated directly from the data, with tmax being defined as the time of the first occurrence of Cmax.

B16/F10 melanoma cells = test: Subcutaneous B16/F10 melanoma model in C57BL/6 mice; format: in vivo, mouse; conditions: compared to untreated mice
Protocol: FIGS. 4A-N. MTX and TMECG combination therapy is effective in vivo. A, A375 melanoma cells were included in a human reconstructed skin model and were treated with MTX (1 μM) and/or TMECG (10 μM) for 14 days. B, B16/F10 melanoma cells were injected subcutaneously into C57/B16 mice. Images show tumor size 17 days post-injection in control and treated mice. […] C, Luciferase imaging of control and MTX/TMECG-treated mice 12 days post-tumor cell injection. Beetle luciferin (120 mg/kg of mouse) was injected intraperitoneally. The values (means±s.d.) are representative of three independent experiments. *P=0.007; **P=0.002. […] E, Quantification of macrometastases (0-10, 10-25 or >25) after treatment with vehicle (control), MTX (1 mg/kg/day), and/or TMECG (50 mg/kg/day). […] B16/F10 cells extracted from tumors were examined for their sensitivity to the MTX/TMECG combination (1 μM and 10 μM, respectively) using quantification of the luminescence signal (left panel). […]
Animals were bred and maintained according to the Spanish legislation on the ‘Protection of Animals used for Experimental and other Scientific Purposes’ and in accordance with the directives of the European community. […] Primary spleen tumors and hepatic metastases at 12 and 14 days, respectively, were analyzed using the IVIS Imaging System (Caliper Life Sciences). […]

SK-MEL-28 melanoma cells = test: HPLC/MS analyses of MTX, TMECG-QM and DHF in whole cell extracts; format: cell-based, human; conditions: SK-MEL-28 whole cell extracts, 24 h, MTX 1 μM and/or TMECG 10 μM; control 3.8 ± 1.1
Protocol: By way of example, the present inventors have shown that an active agent, such as MTX, may be used to increase TYR expression, thereby increasing the conversion of a catechin to its quinone methide form. The inventors have undertaken HPLC analyses of MTX, TMECG-QM, and DHF in whole cell extracts of SK-MEL-28 melanoma cells that were subjected to MTX (1 μM) and TMECG (10 μM) individual and combined treatments (see Table 1).

[4] = test system: B16/F10 primary splenic tumors; test: Primary spleen tumors after intrasplenic injection of luciferase-tagged B16/F10 cells; format: in vivo, mouse
Protocol: C, Luciferase imaging of control and MTX/TMECG-treated mice 12 days post-tumor cell injection. Beetle luciferin (120 mg/kg of mouse) was injected intraperitoneally. The values (means±s.d.) are representative of three independent experiments. *P=0.007; **P=0.002. […] Xenograft tumors treated with DMSO (vehicle) or MTX/TMECG (1 mg/kg/day and 50 mg/kg/day, respectively) over 14-days. […] Representative images taken from two independent experiments (n=5 for each experiment). Scale bar=200 μm and is applicable to both panels. I, B16/F10 melanoma cells, expressing a luciferase reporter, were injected subcutaneously to mice. Mice were divided in two groups (n=7) and treated with vehicle (DMSO) or MTX/TMECG (1 mg/kg/day and 10 mg/kg/day, respectively) over 21-days. Then, tumors were pooled and dissociated. B16/F10 cells extracted from tumors were examined for their sensitivity to the MTX/TMECG combination (1 μM and 10 μM, respectively) using quantification of the luminescence signal (left panel). […] Scale bar refers to all panels. […] Mice were treated with vehicle, MTX (1 mg/kg/day), and/or TMECG (50 mg/kg/day). […] Scale bar refers to all panels.
A, Luciferase imaging of vehicle (control), MTX, and/or TMECG-treated mice 12 days post-tumor cell injection. Firefly luciferin (120 mg/kg of mouse) was injected intraperitoneally. The values are representative of three independent experiments. […] The number of cells was estimated by extrapolation of the experimental luciferase signal to calibration curves. A straight line with a good linear correlation coefficient (0.998) was obtained by plotting luciferase signal vs number of B16/F10-luc2 cells. Treatment of mice (n=6) started 24 hr after tumor induction (Day 1). For all experiments: *p<0.05 with respect to control mice; #p<0.05 with respect to individual MTX or TMECG treatments.

DHFR = target: T1, DHFR (Homo sapiens, UniProt P00374); conditions: Sanchez-del-Campo et al., 2009a; cited from earlier work
T1 sequence (P00374 1-187): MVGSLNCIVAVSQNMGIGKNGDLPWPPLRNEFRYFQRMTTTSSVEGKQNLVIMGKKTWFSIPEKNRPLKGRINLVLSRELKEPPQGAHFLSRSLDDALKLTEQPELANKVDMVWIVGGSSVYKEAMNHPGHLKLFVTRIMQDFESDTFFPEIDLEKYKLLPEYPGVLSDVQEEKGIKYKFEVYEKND

[5] = target: 5-cytosine DNA methyltransferase-1 (Homo sapiens, UniProt P26358); test: Inhibition of 5-cytosine DNA methyltransferase-1; format: biochemical; conditions: data not shown
Chain of 5-cytosine DNA methyltransferase-1 (P26358 whole entry): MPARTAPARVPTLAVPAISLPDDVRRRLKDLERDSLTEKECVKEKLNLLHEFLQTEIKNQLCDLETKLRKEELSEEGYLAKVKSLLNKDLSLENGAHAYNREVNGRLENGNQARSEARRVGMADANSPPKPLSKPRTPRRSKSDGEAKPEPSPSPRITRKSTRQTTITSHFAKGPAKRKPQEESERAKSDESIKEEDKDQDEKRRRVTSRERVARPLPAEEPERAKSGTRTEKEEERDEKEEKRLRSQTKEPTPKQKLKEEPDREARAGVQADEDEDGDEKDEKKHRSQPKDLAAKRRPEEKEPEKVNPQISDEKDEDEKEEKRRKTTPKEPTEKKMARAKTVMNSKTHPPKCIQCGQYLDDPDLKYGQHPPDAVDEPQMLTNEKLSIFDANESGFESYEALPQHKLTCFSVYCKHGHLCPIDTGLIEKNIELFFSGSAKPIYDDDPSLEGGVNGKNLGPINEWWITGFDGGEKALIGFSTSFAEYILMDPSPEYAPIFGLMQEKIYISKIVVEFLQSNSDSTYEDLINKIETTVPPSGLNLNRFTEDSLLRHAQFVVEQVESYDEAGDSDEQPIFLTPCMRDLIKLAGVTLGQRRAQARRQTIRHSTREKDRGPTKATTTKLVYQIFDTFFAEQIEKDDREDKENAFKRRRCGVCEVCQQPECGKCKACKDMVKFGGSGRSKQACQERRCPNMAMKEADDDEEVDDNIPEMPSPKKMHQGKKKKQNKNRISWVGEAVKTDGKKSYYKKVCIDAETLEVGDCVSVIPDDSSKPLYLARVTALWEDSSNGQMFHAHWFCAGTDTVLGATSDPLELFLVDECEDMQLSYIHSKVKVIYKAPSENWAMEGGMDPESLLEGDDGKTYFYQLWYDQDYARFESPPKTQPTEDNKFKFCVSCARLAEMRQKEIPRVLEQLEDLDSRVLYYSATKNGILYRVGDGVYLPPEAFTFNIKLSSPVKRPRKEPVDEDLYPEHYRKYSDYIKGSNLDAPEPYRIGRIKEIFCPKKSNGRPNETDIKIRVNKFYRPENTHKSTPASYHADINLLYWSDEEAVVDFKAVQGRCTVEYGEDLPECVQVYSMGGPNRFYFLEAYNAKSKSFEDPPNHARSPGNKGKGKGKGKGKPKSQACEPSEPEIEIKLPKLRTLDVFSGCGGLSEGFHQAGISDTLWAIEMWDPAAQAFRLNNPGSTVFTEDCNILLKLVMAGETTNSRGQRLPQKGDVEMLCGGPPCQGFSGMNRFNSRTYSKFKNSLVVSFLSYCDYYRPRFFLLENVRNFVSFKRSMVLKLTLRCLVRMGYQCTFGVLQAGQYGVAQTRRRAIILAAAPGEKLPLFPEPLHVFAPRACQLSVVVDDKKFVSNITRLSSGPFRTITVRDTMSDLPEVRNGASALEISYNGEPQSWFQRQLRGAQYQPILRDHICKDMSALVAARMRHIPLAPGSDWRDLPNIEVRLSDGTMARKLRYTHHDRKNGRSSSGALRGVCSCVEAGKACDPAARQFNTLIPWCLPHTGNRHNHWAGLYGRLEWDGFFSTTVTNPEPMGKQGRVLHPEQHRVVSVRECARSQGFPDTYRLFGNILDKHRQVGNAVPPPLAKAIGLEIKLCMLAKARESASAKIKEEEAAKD

proteasome = test: Inhibition of the proteasome; format: biochemical; conditions: data not shown
glutamate dehydrogenase = glutamate dehydrogenase (Homo sapiens, UniProt P00367); test: Inhibition of glutamate dehydrogenase; format: biochemical; conditions: data not shown
Chain of glutamate dehydrogenase (P00367 54-558): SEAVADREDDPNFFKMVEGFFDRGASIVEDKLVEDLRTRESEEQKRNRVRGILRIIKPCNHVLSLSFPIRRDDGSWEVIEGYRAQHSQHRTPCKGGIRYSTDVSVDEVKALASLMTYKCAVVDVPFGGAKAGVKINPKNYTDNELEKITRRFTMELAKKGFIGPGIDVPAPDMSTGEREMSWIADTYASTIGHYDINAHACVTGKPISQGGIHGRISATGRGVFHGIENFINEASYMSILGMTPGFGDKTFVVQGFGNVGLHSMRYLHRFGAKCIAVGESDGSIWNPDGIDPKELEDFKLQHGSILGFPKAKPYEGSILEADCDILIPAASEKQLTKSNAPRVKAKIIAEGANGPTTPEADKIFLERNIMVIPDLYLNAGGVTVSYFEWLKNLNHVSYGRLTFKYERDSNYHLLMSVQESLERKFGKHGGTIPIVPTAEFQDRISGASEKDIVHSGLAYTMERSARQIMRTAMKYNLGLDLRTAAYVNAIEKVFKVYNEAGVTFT

In the case of `CCCS(=O)(=O)Nc1ccc(F)c(C(=O)c2c[nH]c3ncc(Cl)cc23)c1F` [PLX-4720], the “proliferation (MTT)” value [1] is reported as “failed to impact significantly on proliferation”.

In the case of `COc1cc(C(=O)O[C@@H]2Cc3c(O)cc(O)cc3O[C@@H]2c2ccc(O)c(O)c2)cc(OC)c1OC` [TMECG, 3,4,5-trimethoxy-epicatechin-3-gallate], the mouse body weight ([2]; TMECG-treated versus untreated groups) is reported as “not significant”, the toxicity in vivo ([2]; preliminary observations) is reported as “not toxic in vivo” and the AUC ([3]; read-out: TMECG Parameters AUC) is reported as 79100 ng·h/mL. It also gave a Cmax ([3]; read-out: TMECG Parameters Cmax) of 39300 ng/mL, a Tmax ([3]; read-out: TMECG Parameters Tmax) of 5.4 min and a half-life ([3]; read-out: TMECG Parameters t1/2 (converted)) of 107 min. The tumor growth (B16/F10 melanoma cells) was “significantly reduced”, the DHF intracellular concentration (SK-MEL-28 melanoma cells) was 4.8 ± 0.9 pmol/10^6 cells and the “necrotic areas in splenic tumors” value ([4]; 14 days treatment, MTX 1 mg/kg/day and/or TMECG 50 mg/kg/day) was 11%±3%. For the same compound, the “effect on in vivo luciferase signal” value ([4]; MTX or TMECG alone, 12 days post-tumor cell injection) was “around 2 fold”.

For `COc1cc(C(=O)O[C@H](Cc2c(O)cc(O)cc2O)C(=O)c2ccc(O)c(O)c2)cc(OC)c1OC` [TMECG-QM], the “inhibition constant for DHFR” value (DHFR) is given as “nanomolar order”, the “inhibition of 5-cytosine DNA methyltransferase-1” value [5] is given as “does not inhibit” and the “inhibition of the proteasome” value (proteasome) is given as “does not inhibit”. The “inhibition of glutamate dehydrogenase” value (glutamate dehydrogenase) was “does not inhibit”.
